Data published in paper PMC3880798 (Clinical cancer research : an official journal of the …, 2013).

Columns and labels:
[1] = Plasma pharmacokinetics of OSI-930; format: in vivo, human; conditions: for AUC / Cmax / concentration at 22 day / half-life / Tmax: human, plasma
c-Kit = conditions: intact cellular systems; cited from earlier work
[2] = in vivo
[3] = system: pelvic or hepatic lesions; assay: DCE-MRI functional imaging; format: in vivo, human

SMILES: O=C(Nc1ccc(OC(F)(F)F)cc1)c1sccc1NCc1ccnc2ccccc12 [OSI-930]
- AUC ([1]; oral, 400 mg, AUCtau, 400 mg once a day (n = 2), day 22, steady state): 10700 ng·h/mL
- AUC ([1]; oral, 400 mg, AUCtau, 400 mg twice a day (n = 6), day 22, steady state): 7880 ng·h/mL
- Cmax ([1]; oral, 400 mg, Cmax, 400 mg once a day (n = 2), day 22, steady state): 873 ng/mL
- Cmax ([1]; oral, 400 mg, Cmax, 400 mg twice a day (n = 6), day 22, steady state): 802 ng/mL
- concentration at 22 day ([1]; oral, 400 mg, Cmin, 400 mg once a day (n = 2), day 22, steady state): 306 ng/mL
- concentration at 22 day ([1]; oral, 400 mg, Cmin, 400 mg twice a day (n = 6), day 22, steady state): 423 ng/mL
- half-life ([1]; oral, 400 mg, T1/2, 400 mg once a day (n = 2), day 22, steady state): 13.8 h
- half-life ([1]; oral, 400 mg, T1/2, 400 mg twice a day (n = 6), day 22, steady state): 4.07 h
- Tmax ([1]; oral, 400 mg, Tmax, 400 mg once a day (n = 2), day 22, steady state): 4 h
- Tmax ([1]; oral, 400 mg, Tmax, 400 mg twice a day (n = 6), day 22, steady state): 6.1 h
- AUC ([1]; oral, 500 mg, AUCtau, 500 mg twice a day (n = 21), day 22, steady state): 5760 ng·h/mL
- Cmax ([1]; oral, 500 mg, Cmax, 500 mg twice a day (n = 21), day 22, steady state): 1010 ng/mL
- concentration at 22 day ([1]; oral, 500 mg, Cmin, 500 mg twice a day (n = 21), day 22, steady state): 547 ng/mL
- half-life ([1]; oral, 500 mg, T1/2, 500 mg twice a day (n = 21), day 22, steady state): 7.11 h
- Tmax ([1]; oral, 500 mg, Tmax, 500 mg twice a day (n = 21), day 22, steady state): 3.6 h
- AUC ([1]; oral, 600 mg, AUCtau, 600 mg twice a day (n = 6), day 22, steady state): 11900 ng·h/mL
- Cmax ([1]; oral, 600 mg, Cmax, 600 mg twice a day (n = 6), day 22, steady state): 2030 ng/mL
- concentration at 22 day ([1]; oral, 600 mg, Cmin, 600 mg twice a day (n = 6), day 22, steady state): 1170 ng/mL
- half-life ([1]; oral, 600 mg, T1/2, 600 mg twice a day (n = 6), day 22, steady state): 5.39 h
- Tmax ([1]; oral, 600 mg, Tmax, 600 mg twice a day (n = 6), day 22, steady state): 3.5 h
- AUC ([1]; oral, 800 mg, AUCtau, 800 mg once a day (n = 2), day 22, steady state): 11300 ng·h/mL
- Cmax ([1]; oral, 800 mg, Cmax, 800 mg once a day (n = 2), day 22, steady state): 984 ng/mL
- concentration at 22 day ([1]; oral, 800 mg, Cmin, 800 mg once a day (n = 2), day 22, steady state): 304 ng/mL
- half-life ([1]; oral, 800 mg, T1/2, 800 mg once a day (n = 2), day 22, steady state): 18.1 h
- Tmax ([1]; oral, 800 mg, Tmax, 800 mg once a day (n = 2), day 22, steady state): 4.1 h
- AUC ([1]; oral, 1200 mg, AUCtau, 1,200 mg once a day (n = 1), day 22, steady state): 19600 ng·h/mL
- Cmax ([1]; oral, 1200 mg, Cmax, 1,200 mg once a day (n = 1), day 22, steady state): 1990 ng/mL
- concentration at 22 day ([1]; oral, 1200 mg, Cmin, 1,200 mg once a day (n = 1), day 22, steady state): 493 ng/mL
- half-life ([1]; oral, 1200 mg, T1/2, 1,200 mg once a day (n = 1), day 22, steady state): 20.2 h
- Tmax ([1]; oral, 1200 mg, Tmax, 1,200 mg once a day (n = 1), day 22, steady state): 4 h
- AUC ([1]; oral, 1600 mg, AUCtau, 1,600 mg once a day (n = 3), day 22, steady state): 13000 ng·h/mL
- Cmax ([1]; oral, 1600 mg, Cmax, 1,600 mg once a day (n = 3), day 22, steady state): 1070 ng/mL
- concentration at 22 day ([1]; oral, 1600 mg, Cmin, 1,600 mg once a day (n = 3), day 22, steady state): 249 ng/mL
- half-life ([1]; oral, 1600 mg, T1/2, 1,600 mg once a day (n = 3), day 22, steady state): 12.6 h
- Tmax ([1]; oral, 1600 mg, Tmax, 1,600 mg once a day (n = 3), day 22, steady state): 6 h
- half-life ([1]; oral, Terminal half-life, twice a day cohort): 2.3 to 7.1 h
- Tmax ([1]; po, Time to peak plasma concentrations, once a day and twice a day cohorts): 2 to 10 h
- Linearity of Cmax and AUC ([1]; once a day cohorts): linearity in Cmax and AUC in the dose range 50 to 1,200 mg, but not at 1,600 mg
- Accumulation in plasma at steady state ([1]; twice a day oral administration): ~2 fold
- Steady state plasma concentrations achieved ([1]; twice a day oral administration, predose concentrations days 8, 15, 22): ≤ 8 days
- Potency for wild-type versus mutant c-Kit (c-Kit): equal potencies
- Cases of grade 2 proteinuria ([2]; human): 1 case
- Grade 3 hypertension (number) ([2]; human): 1
- Patients requiring a dose modification ([2]; human): 33 patients
- Patients who developed grade 1 to 2 PPE ([2]; human): 15%
- Patients with adverse events considered related to OSI-930 ([2]; human): 58%
- Patients with anorexia (reported adverse events) ([2]; human): 6
- Patients with at least 1 grade 3 adverse event of any cause ([2]; human): 50%
- Patients with fatigue (reported adverse events) ([2]; human): 8
- Patients with grade 1 to 2 drug-related fatigue ([2]; human): 3 patients
- Patients with grade 1 to 2 drug-related nausea and anorexia ([2]; human): 2 patients
- Patients with grade 3 PPE ([2]; human): 1 patient
- Patients with nausea (reported adverse events) ([2]; human): 5
- Patients with treatment discontinued for toxicity ([2]; human): 1 patient
- Treatment-related adverse events greater than grade 2 ([2]; human): no treatment-related adverse events greater than grade 2
- Treatment-related fatigue ([2]; human): 50%
- Treatment-related grade 3 fatigue ([2]; human): 6%
- Treatment-related grade 3 hypertension ([2]; human): 6%
- Treatment-related grade 3 nausea ([2]; human): 6%
- Treatment-related grade 3 skin toxicity ([2]; human): 6%
- Patients with grade 1 to 2 drug-related skin and subcutaneous disorders ([2]; human, sc): 3 patients
- Reports of mucositis [2]: no reports of mucositis
- Decreases of IAUC and AUC from baseline values ([3]; 4 responding patients, 500 mg twice a day): −4% to −78%
- Decrease in Ktrans and Ve ([3]; day 22, 4 of 6 patients with non-GIST tumors): > 40%
